The source of these data is patent publication US20110178053A1, “AZACARBOLINE DERIVATIVES, PREPARATION METHOD THEREOF AND THERAPEUTIC USE OF SAME” (SANOFI-AVENTIS, priority 2008, published 2011).

Bounds are passed on as bounds.

In experiment [1] the target is T1, Pim-1 (Homo sapiens, UniProt P11309).
T1 construct: His6-labelled recombinant full-length human Pim-1, Pim-2 or Pim-3 protein; His6; made in house
Kind of experiment: TR-FRET assay, Pim-1 kinase (phosphorylation of Bad Ser112). Format: biochemical. Conditions: TR-FRET; ATP 40 μM; read-out: IC50 Pim1. In outline:
(§1)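 Recombinant His6-tagged full-length human Pim-1, Pim-2 or Pim-3 phosphorylates His6-tagged full-length human Bad at 40 μM ATP (apparent KM). Phospho-Ser112 is detected by TR-FRET between Eu-labelled anti-phosphoBad and APC-labelled anti-His6 (665/615 nm ratio); 10-point duplicate series, top typically 30 μM, IC50 from 4-parameter logistic fit.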
In general terms: TR-FRET usually uses a lanthanide donor and a delayed reading to cut background.

The target of experiment [2] is PLK1 (Homo sapiens, UniProt P53350). Kind of experiment: PLK1 biochemical inhibition.
Sequence of PLK1 (P53350 whole entry, species assumed): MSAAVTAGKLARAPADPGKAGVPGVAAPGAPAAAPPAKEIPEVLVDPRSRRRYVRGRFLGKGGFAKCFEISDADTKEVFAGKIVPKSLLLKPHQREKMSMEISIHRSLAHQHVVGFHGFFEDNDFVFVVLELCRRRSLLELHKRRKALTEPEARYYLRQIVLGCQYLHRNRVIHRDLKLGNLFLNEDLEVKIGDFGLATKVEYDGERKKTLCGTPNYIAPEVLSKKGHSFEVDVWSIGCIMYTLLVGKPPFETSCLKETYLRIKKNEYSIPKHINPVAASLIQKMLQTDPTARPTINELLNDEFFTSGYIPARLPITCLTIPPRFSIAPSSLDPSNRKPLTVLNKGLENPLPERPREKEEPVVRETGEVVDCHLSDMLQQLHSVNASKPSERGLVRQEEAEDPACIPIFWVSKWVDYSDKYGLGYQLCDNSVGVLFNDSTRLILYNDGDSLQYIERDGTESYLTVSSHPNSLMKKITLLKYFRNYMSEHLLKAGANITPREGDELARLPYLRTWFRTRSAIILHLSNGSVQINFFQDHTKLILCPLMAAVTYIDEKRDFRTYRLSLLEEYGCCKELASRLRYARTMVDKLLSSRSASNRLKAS
Experiment [3] has as its target T2, Pim-3 (Homo sapiens, UniProt Q86V86).
T2 construct: His6-labelled recombinant full-length human Pim-1, Pim-2 or Pim-3 protein; His6; made in house
Briefly: TR-FRET assay, Pim-3 kinase (phosphorylation of Bad Ser112). Format: biochemical. The conditions noted are these: TR-FRET; ATP 40 μM; read-out: IC50 Pim3. In outline:
as §1

Experiment [4] addresses T3, Pim-2 (Homo sapiens, UniProt Q9P1W9).
T3 construct: His6-labelled recombinant full-length human Pim-1, Pim-2 or Pim-3 protein; His6; made in house
Kind of experiment: TR-FRET assay, Pim-2 kinase (phosphorylation of Bad Ser112). Format: biochemical. The conditions noted are these: TR-FRET; ATP 40 μM; read-out: IC50 Pim2. In outline:
as §1

T3 sequence (Q9P1W9 whole entry): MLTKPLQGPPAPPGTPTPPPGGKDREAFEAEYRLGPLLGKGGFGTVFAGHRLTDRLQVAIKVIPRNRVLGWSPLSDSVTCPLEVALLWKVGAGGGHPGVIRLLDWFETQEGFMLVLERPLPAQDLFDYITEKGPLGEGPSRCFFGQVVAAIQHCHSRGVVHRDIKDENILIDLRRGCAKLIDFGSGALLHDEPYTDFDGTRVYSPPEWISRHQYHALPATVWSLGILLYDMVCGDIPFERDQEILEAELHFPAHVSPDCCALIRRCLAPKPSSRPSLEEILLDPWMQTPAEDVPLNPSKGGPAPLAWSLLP
T1 sequence (P11309 whole entry): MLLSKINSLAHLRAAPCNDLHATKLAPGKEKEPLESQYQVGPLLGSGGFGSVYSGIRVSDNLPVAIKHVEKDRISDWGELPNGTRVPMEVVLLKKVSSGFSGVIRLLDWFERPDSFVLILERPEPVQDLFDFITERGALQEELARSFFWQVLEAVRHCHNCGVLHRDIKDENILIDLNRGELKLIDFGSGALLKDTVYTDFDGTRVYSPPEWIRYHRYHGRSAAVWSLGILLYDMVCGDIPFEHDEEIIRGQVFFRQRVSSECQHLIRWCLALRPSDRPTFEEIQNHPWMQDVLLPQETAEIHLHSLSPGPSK

`Fc1cnc2[nH]c3cnc(-c4cccnc4)cc3c2c1` [Example 2, 3-fluoro-6-(pyrid-3-yl)-9H-pyrrolo[2,3-b:5,4-c′] dipyridine]: the IC50 in experiment [1] and in experiment [2] was 0.1 to 1 µM each time.
`CCCN(C)C(=O)c1cnc2[nH]c3cnc(-c4cccnc4)cc3c2c1` [Example 6, N-methyl-N-propyl-6-(pyrid-3-yl)-9H-pyrrolo[2,3-b:5,4-c′]dipyridine-3-carboxamide]: the IC50 in experiment [3] was 1 to 5 µM; in experiment [1], 0.1 to 1 µM; in experiment [4], 1 to 5 µM; in experiment [2], greater than 5 µM.
With `CCN(CC)CCn1nc(C)c(-c2cnc3[nH]c4cnc(-c5cccnc5)cc4c3c2)c1C` [Example 125, 2-{3,5-dimethyl-4-[6-(pyrid-3-yl)-9H-pyrrolo[2,3-b:5,4-c′]dipyrid-3-yl]-1H-pyrazol-1-yl}-N,N-diethyl-ethanamine], the half-inhibitory concentration (IC50) in experiment [3] was 0.001 to 0.1 µM; in experiment [1], 0.001 to 0.1 µM; in experiment [2], 1 to 5 µM.
For `c1cncc(-c2cc3c(cn2)[nH]c2ncc(-c4ccnc(N5CCNCC5)c4)cc23)c1` [Example 144, 3-[2-(piperazin-1-yl)pyrid-4-yl]-6-(pyrid-3-yl)-9H-pyrrolo[2,3-b:5,4-c′]dipyridine], the half-maximal inhibitory concentration (IC50) is 0.001 to 0.1 µM in experiment [3], 0.001 to 0.1 µM in experiment [1] and greater than 5 µM in experiment [4].
`CN(C)CCCOc1ccc(-c2cnc3[nH]c4cnc(-c5cccnc5)cc4c3c2)cn1` [Example 145, N,N-dimethyl-3-({5-[6-(pyrid-3-yl)-9H-pyrrolo[2,3-b:5,4-c′]dipyrid-3-yl]pyrid-2-yl}-oxy)propan-1-amine]: the IC50 is 0.001 to 0.1 µM in experiment [3], 0.001 to 0.1 µM in experiment [1] and 0.1 to 1 µM in experiment [4].
With `CN(C)CCCOc1ccc(-c2cnc3[nH]c4cnc(-c5cccnc5)cc4c3c2)cc1` [Example 146, N,N-dimethyl-3-{4-[6-(pyrid-3-yl)-9H-pyrrolo[2,3-b:5,4-c′]dipyrid-3-yl]phenoxy}-propan-1-amine], the half-maximal inhibitory concentration (IC50) in experiment [3] lay within 0.001 to 0.1 µM; in experiment [1], 0.001 to 0.1 µM; in experiment [4] it was 0.1 to 1 µM.
Consider `c1cncc(-c2cc3c(cn2)[nH]c2ncc(-c4ccc(OCCCN5CCCCC5)cc4)cc23)c1` [Example 147, 3-{4-[3-(piperid-1-yl)propoxy]phenyl}-6-(pyrid-3-yl)-9H-pyrrolo[2,3-b:5,4-c′]-dipyridine], for which the results for the IC50 in experiment [3], in experiment [1] and in experiment [4] were 0.001 to 0.1 µM, 0.001 to 0.1 µM and 0.1 to 1 µM, respectively.
Regarding `c1cncc(-c2cc3c(cn2)[nH]c2ncc(-c4ccc(OCCN5CCOCC5)cc4)cc23)c1` [Example 148, 3-{4-[2-(morpholin-4-yl)ethoxy]phenyl}-6-(pyrid-3-yl)-9H-pyrrolo[2,3-b:5,4-c′]-dipyridine], the IC50 in experiment [3] lay within 0.001 to 0.1 µM; in experiment [1] it was 0.001 to 0.1 µM; in experiment [4], 0.1 to 1 µM.
On to `c1cncc(-c2cc3c(cn2)[nH]c2ncc(-c4ccc(OCCCN5CCOCC5)cc4)cc23)c1` [Example 149, 3-{4-[3-(morpholin-4-yl)propoxy]phenyl}-6-(pyrid-3-yl)-9H-pyrrolo[2,3-b:5,4-c′]-dipyridine], for which the values for the IC50 in experiment [3], in experiment [1] and in experiment [4] were 0.001 to 0.1 µM, 0.001 to 0.1 µM and 0.1 to 1 µM, respectively.
Take `c1cncc(-c2cc3c(cn2)[nH]c2ncc(-c4ccc(OCCn5ccnc5)cc4)cc23)c1` [Example 150, 3-{4-[2-(1H-imidazol-1-yl)ethoxy]phenyl}-6-(pyrid-3-yl)-9H-pyrrolo[2,3-b:5,4-c′]-dipyridine]: the IC50 fell in the range of 0.001 to 0.1 µM in experiment [3], 0.001 to 0.1 µM in experiment [1] and 0.1 to 1 µM in experiment [4].
Take `Oc1ccc(-c2cnc3[nH]c4cnc(-c5cccnc5)cc4c3c2)cc1` [Example 151, 4-[6-(pyrid-3-yl)-9H-pyrrolo[2,3-b:5,4-c′]dipyrid-3-yl]phenol]: the IC50 in experiment [3] fell in the range of 0.001 to 0.1 µM; in experiment [1], 0.001 to 0.1 µM; in experiment [4], 0.1 to 1 µM.
As to `CS(=O)(=O)N1CCN(CCCOc2ccc(-c3cnc4[nH]c5cnc(-c6cccnc6)cc5c4c3)cc2)CC1` [Example 152, 3-(4-{3-[4-(methylsulfonyl)piperazin-1-yl]propoxy}phenyl)-6-(pyrid-3-yl)-9H-pyrrolo-[2,3-b:5,4-c′]dipyridine], the half-maximal inhibitory concentration (IC50) is 0.001 to 0.1 µM in experiment [3], 0.001 to 0.1 µM in experiment [1] and 0.1 to 1 µM in experiment [4].
As to `CCN(CC)CCOc1cccc(-c2cnc3[nH]c4cnc(-c5cccnc5)cc4c3c2)c1` [Example 153, N,N-diethyl-2-{3-[6-(pyrid-3-yl)-9H-pyrrolo[2,3-b:5,4-c′]dipyrid-3-yl]phenoxy}ethan-amine], the IC50 in experiment [3] fell in the range of 0.001 to 0.1 µM; in experiment [1], 0.001 to 0.1 µM; in experiment [4] it was 1 to 5 µM.
As to `NCCCOc1ccc(-c2cnc3[nH]c4cnc(-c5cccnc5)cc4c3c2)cc1` [Example 155, 3-{4-[6-(pyrid-3-yl)-9H-pyrrolo[2,3-b:5,4-c′]dipyrid-3-yl]-phenoxy}propan-1-amine], the IC50 in experiment [3] lay in the range of 0.001 to 0.1 µM; in experiment [1], 0.001 to 0.1 µM; in experiment [4], 0.1 to 1 µM.
On to `Cc1cc(N2CCN(C(=O)OC(C)(C)C)CC2)ncc1-c1cnc2[nH]c3cnc(-c4cccnc4)cc3c2c1` [Example 156, 2-methyl-2-propyl 4-{4-methyl-5-[6-(pyrid-3-yl)-9H-pyrrolo[2,3-b:5,4-c′]dipyrid-3-yl]-pyrid-2-yl}piperazine-1-carboxylate], for which the concentration for half-maximal inhibition (IC50) in experiment [3] is 0.1 to 1 µM; in experiment [1], 0.001 to 0.1 µM; in experiment [4], greater than 5 µM.
On the same counts, the results for `Cc1cc(N2CCNCC2)ncc1-c1cnc2[nH]c3cnc(-c4cccnc4)cc3c2c1` [Example 157, 3-[4-methyl-6-(piperazin-1-yl)pyrid-3-yl]-6-(pyrid-3-yl)-9H-pyrrolo[2,3-b:5,4-c′]-dipyridine] are 0.001 to 0.1 µM, 0.001 to 0.1 µM and 0.1 to 1 µM.
The like results for `c1cncc(-c2cc3c(cn2)[nH]c2ncc(-c4ccc(N5CCNCC5)nc4)cc23)c1` [Example 158, 3-[6-(piperazin-1-yl)pyrid-3-yl]-6-(pyrid-3-yl)-9H-pyrrolo[2,3-b:5,4-c′]dipyridine] were, in that order, 0.001 to 0.1 µM, 0.001 to 0.1 µM and 0.1 to 1 µM.
On the same counts, the results for `COc1cncc(-c2cc3c(cn2)[nH]c2ncc(F)cc23)c1` [Example 159, 3-fluoro-6-(5-methoxypyrid-3-yl)-9H-pyrrolo[2,3-b:5,4-c′]dipyridine] are 1 to 5 µM, 1 to 5 µM and greater than 5 µM.
In the case of `COc1ccncc1-c1cc2c(cn1)[nH]c1ncc(F)cc12` [Example 160, 3-fluoro-6-(4-methoxypyrid-3-yl)-9H-pyrrolo[2,3-b:5,4-c′]dipyridine], the values for the IC50 in experiment [3], in experiment [1] and in experiment [4] were 1 to 5 µM, 0.1 to 1 µM and greater than 5 µM, respectively.
The like results for `CSc1cncc(-c2cc3c(cn2)[nH]c2ncc(F)cc23)c1` [Example 161, 3-fluoro-6-[5-(methylsulfanyl)pyrid-3-yl]-9H-pyrrolo[2,3-b:5,4-c′]dipyridine] were, in that order, 0.1 to 1 µM, 0.1 to 1 µM and greater than 5 µM.
Regarding `Fc1cnc2[nH]c3cnc(-c4ccsc4)cc3c2c1` [Example 162, 3-fluoro-6-(thiophen-3-yl)-9H-pyrrolo[2,3-b:5,4-c′]dipyridine], the IC50 in experiment [3] is greater than 5 µM; in experiment [1], greater than 5 µM; in experiment [2] it was 1 to 5 µM.
Turning to `CCN(CC)CCCn1cc(-c2cc3c(cn2)[nH]c2ncc(OC)cc23)cn1` [Example 166, N,N-diethyl-3-[4-(3-methoxy-9H-pyrrolo[2,3-b:5,4-c′]dipyrid-6-yl)-1H-pyrazol-1-yl]-propan-1-amine], the IC50 was 1 to 5 µM in experiment [3], 0.1 to 1 µM in experiment [1] and greater than 5 µM in experiment [4].
With `COc1cnc2[nH]c3cnc(-c4cnn(CCCCCN)c4)cc3c2c1` [Example 168, 5-[4-(3-methoxy-9H-pyrrolo[2,3-b:5,4-c′]dipyrid-6-yl)-1H-pyrazol-1-yl]pentan-1-amine], the IC50 in experiment [3] is 0.1 to 1 µM; in experiment [1], 0.1 to 1 µM; in experiment [4], greater than 5 µM.
As for `COc1cnc2[nH]c3cnc(-c4cnn(CCC5CCCCN5C)c4)cc3c2c1` (stereo not drawn) [Example 169, 3-methoxy-6-{1-[2-(1-methylpiperid-2-yl)ethyl]-1H-pyrazol-4-yl}-9H-pyrrolo[2,3-b:5,4-c′]dipyridine], the concentration for half-maximal inhibition (IC50) in experiment [3] is 0.1 to 1 µM; in experiment [1] it was 0.1 to 1 µM; in experiment [4] it was greater than 5 µM.
For `C=CCn1cc(-c2cc3c(cn2)[nH]c2nccc(-c4ccc(C(=O)OC)cc4)c23)cn1` [Example 170, methyl 4-{6-[1-(prop-2-en-1-yl)-1H-pyrazol-4-yl]-9H-pyrrolo[2,3-b:5,4-c′]dipyrid-4-yl}benzoate], the 50% inhibitory concentration (IC50) in experiment [3] fell in the range of 0.1 to 1 µM; in experiment [1], 0.001 to 0.1 µM; in experiment [4] it was 0.1 to 1 µM.
For `Cn1cc(-c2cc3c(cn2)[nH]c2ncc(F)c(-c4ccc(NS(C)(=O)=O)cc4)c23)cn1` [Example 171, N-{-4-[3-fluoro-6-(1-methyl-1H-pyrazol-4-yl)-9H-pyrrolo[2,3-b:5,4-c′]dipyrid-4-yl]-phenyl}methane sulfonamide], the IC50 in experiment [3], in experiment [1] and in experiment [4] was 0.001 to 0.1 µM each time.
Turning to `O=C(O)c1cc2c(cn1)[nH]c1ncccc12` [Example 172, 9H-pyrrolo[2,3-b:5,4-c′]dipyridine-6-carboxylic acid], the IC50 in experiment [1], in experiment [4] and in experiment [2] was greater than 5 µM in each case.

As a reminder, the IC50 is the concentration that gives 50% inhibition.
